Results reported in patent US20120029187A1, “HALOALKYLSULFONANILIDE DERIVATIVE” (Nissan Chemical Industries, Ltd., priority 2009, published 2012).

How the values were obtained:
Assay type in all cases: in vivo
[1] = tested on: barnyardgrass; test: Test Example 1: herbicidal effects in preemergence treatment under submerged conditions; conditions: dose 2.52 g/a
In short: (§1)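 Alluvial soil was flooded to 4 cm, sown with barnyardgrass, bulrush and ducksalad, and planted with 2.5-leaf rice seedlings. On the seeding day, water-diluted emulsifiable concentrates were applied to the water surface at set doses (g/a). After three weeks in a 25 to 30° C. greenhouse, mortality was scored 0–5.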

[2] = tested on: bulrush; test: as above; conditions: dose 2.52 g/a
In short: as §1

[3] = tested on: ducksalad; test: as above; conditions: dose 2.52 g/a
In short: as §1

[4] = tested on: barnyardgrass; test: Test Example 2: herbicidal effects during the vegetation period under submerged conditions; conditions: treatment during the vegetation period under submerged conditions; dose 2.52 g/a
In short: (§2)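 Barnyardgrass, bulrush and ducksalad were co-sown in alluvial soil flooded to 4 cm and grown in a greenhouse at 25 to 30° C. At the 1- or 2-leaf stage, water-diluted emulsifiable concentrates went onto the water surface at set doses (g/a). Herbicidal effect was scored three weeks later on a graded scale.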

[5] = tested on: bulrush; test: as above; conditions: treatment during the vegetation period under submerged conditions; dose 2.52 g/a
In short: as §2

[6] = tested on: ducksalad; test: as above; conditions: treatment during the vegetation period under submerged conditions; dose 2.52 g/a
In short: as §2

[7] = tested on: Italian ryegrass; test: Test Example 3: herbicidal effects in soil treatment; conditions: dose 6.3 g/a
In short: (§3)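 Seeds were sown in sterilized diluvial soil and covered with about 1.5 cm of soil. Compounds, formulated as emulsifiable concentrates and diluted with water, were sprayed evenly over the soil surface at set doses in g/a. Herbicidal effect was scored on a rating scale three weeks later.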

[8] = tested on: barnyardgrass; test: as above; conditions: dose 6.3 g/a
In short: as §3

[9] = tested on: common chickweed; test: as above; conditions: dose 6.3 g/a
In short: as §3

[10] = tested on: common lambsquater; test: as above; conditions: dose 6.3 g/a
In short: as §3

[11] = tested on: common ragweed; test: as above; conditions: dose 6.3 g/a
In short: as §3

[12] = tested on: giant foxtail; test: as above; conditions: dose 6.3 g/a
In short: as §3

[13] = tested on: large crabgrass; test: as above; conditions: dose 6.3 g/a
In short: as §3

[14] = tested on: posumbu knotweed; test: as above; conditions: dose 6.3 g/a
In short: as §3

[15] = tested on: redroot pigweed; test: as above; conditions: dose 6.3 g/a
In short: as §3

[16] = tested on: velvetleaf; test: as above; conditions: dose 6.3 g/a
In short: as §3

[17] = tested on: water foxtail; test: as above; conditions: dose 6.3 g/a
In short: as §3

[18] = tested on: wild oat; test: as above; conditions: dose 6.3 g/a
In short: as §3

[19] = tested on: Italian ryegrass; test: Test Example 4: herbicidal effect in foliage treatment; conditions: dose 6.3 g/a, three weeks after application
In short: (§4)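 14-day greenhouse-grown plants (25–30° C) sprayed on foliage with diluted EC; dose as g/a; effect graded after 3 weeks.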

[20] = tested on: barnyardgrass; test: as above; conditions: dose 6.3 g/a, three weeks after application
In short: as §4

[21] = tested on: beadstraw; test: as above; conditions: dose 6.3 g/a, three weeks after application
In short: as §4

[22] = tested on: common chickweed; test: as above; conditions: dose 6.3 g/a, three weeks after application
In short: as §4

[23] = tested on: common lambsquater; test: as above; conditions: dose 6.3 g/a, three weeks after application
In short: as §4

[24] = tested on: common ragweed; test: as above; conditions: dose 6.3 g/a, three weeks after application
In short: as §4

[25] = tested on: giant foxtail; test: as above; conditions: dose 6.3 g/a, three weeks after application
In short: as §4

[26] = tested on: large crabgrass; test: as above; conditions: dose 6.3 g/a, three weeks after application
In short: as §4

[27] = tested on: posumbu knotweed; test: as above; conditions: dose 6.3 g/a, three weeks after application
In short: as §4

[28] = tested on: redroot pigweed; test: as above; conditions: dose 6.3 g/a, three weeks after application
In short: as §4

[29] = tested on: velvetleaf; test: as above; conditions: dose 6.3 g/a, three weeks after application
In short: as §4

[30] = tested on: water foxtail; test: as above; conditions: dose 6.3 g/a, three weeks after application
In short: as §4

[31] = tested on: wild oat; test: as above; conditions: dose 6.3 g/a, three weeks after application
In short: as §4

Structure (SMILES) | A: barnyardgrass, herbicidal effect (evaluation scale 0-5) [1] | B: bulrush, herbicidal effect (evaluation scale 0-5) [2] | C: ducksalad, herbicidal effect (evaluation scale 0-5) [3] | B: bulrush, herbicidal effect (evaluation scale 0-5) [5] | C: ducksalad, herbicidal effect (evaluation scale 0-5) [6] | H: Italian ryegrass, herbicidal effect (evaluation scale 0-5) [7] | A: barnyardgrass, herbicidal effect (evaluation scale 0-5) [8] | N: common chickweed, herbicidal effect (evaluation scale 0-5) [9] | L: common lambsquater, herbicidal effect (evaluation scale 0-5) [10] | J: common ragweed, herbicidal effect (evaluation scale 0-5) [11] | E: giant foxtail, herbicidal effect (evaluation scale 0-5) [12] | D: large crabgrass, herbicidal effect (evaluation scale 0-5) [13] | M: posumbu knotweed, herbicidal effect (evaluation scale 0-5) [14] | K: redroot pigweed, herbicidal effect (evaluation scale 0-5) [15] | I: velvetleaf, herbicidal effect (evaluation scale 0-5) [16] | G: water foxtail, herbicidal effect (evaluation scale 0-5) [17] | F: wild oat, herbicidal effect (evaluation scale 0-5) [18] | H: Italian ryegrass, herbicidal effect [19] | A: barnyardgrass, herbicidal effect [20] | O: beadstraw, herbicidal effect [21] | other results
CC1OCCN(Cc2ccccc2NS(=O)(=O)C(F)(F)F)C1=O (stereo not shown) [Compound I-4, 2-methyl-4-(2-trifluoromethanesulfonylaminobenzyl)-1,4-oxazinan-3-one] | 5 (mortality of 90% or above (nearly complete death)) | 5 (mortality of 90% or above (nearly complete death)) | 5 (mortality of 90% or above (nearly complete death)) | 5 (mortality of 90% or above (nearly complete death)) | 5 (mortality of 90% or above (nearly complete death)) | 3 (mortality of at least 40% and less than 70%) | 4 (mortality of at least 70% and less than 90%) | 5 (mortality of 90% or above (nearly complete death)) | 5 (mortality of 90% or above (nearly complete death)) | 5 (mortality of 90% or above (nearly complete death)) | 3 (mortality of at least 40% and less than 70%) | 5 (mortality of 90% or above (nearly complete death)) | 4 (mortality of at least 70% and less than 90%) | 4 (mortality of at least 70% and less than 90%) | 4 (mortality of at least 70% and less than 90%) | 5 (mortality of 90% or above (nearly complete death)) | 0 (mortality of less than 5% (almost ineffective)) | 2 (mortality of at least 20% and less than 40%) | 5 (mortality of 90% or above (nearly complete death)) | 4 (mortality of at least 70% and less than 90%) | A: barnyardgrass, herbicidal effect (evaluation scale 0-5) [4]: 5 (mortality of 90% or above (nearly complete death)); N: common chickweed, herbicidal effect [22]: 4 (mortality of at least 70% and less than 90%); L: common lambsquater, herbicidal effect [23]: 4 (mortality of at least 70% and less than 90%); J: common ragweed, herbicidal effect [24]: 4 (mortality of at least 70% and less than 90%); E: giant foxtail, herbicidal effect [25]: 4 (mortality of at least 70% and less than 90%); D: large crabgrass, herbicidal effect [26]: 5 (mortality of 90% or above (nearly complete death)); M: posumbu knotweed, herbicidal effect [27]: 3 (mortality of at least 40% and less than 70%); K: redroot pigweed, herbicidal effect [28]: 3 (mortality of at least 40% and less than 70%); I: velvetleaf, herbicidal effect [29]: 5 (mortality of 90% or above (nearly complete death)); G: water foxtail, herbicidal effect [30]: 5 (mortality of 90% or above (nearly complete death)); F: wild oat, herbicidal effect [31]: 0 (mortality of less than 5% (almost ineffective))
O=C1CSCCN1Cc1ccccc1NS(=O)(=O)C(F)(F)F [Compound I-17, 4-(2-trifluoromethanesulfonylaminobenzyl)-1,4-thiazinan-3-one] | 4 (mortality of at least 70% and less than 90%) | 5 (mortality of 90% or above (nearly complete death)) | 5 (mortality of 90% or above (nearly complete death)) | 5 (mortality of 90% or above (nearly complete death)) | 4 (mortality of at least 70% and less than 90%) | 3 (mortality of at least 40% and less than 70%) | 5 (mortality of 90% or above (nearly complete death)) | 5 (mortality of 90% or above (nearly complete death)) | 5 (mortality of 90% or above (nearly complete death)) | 4 (mortality of at least 70% and less than 90%) | 3 (mortality of at least 40% and less than 70%) | 5 (mortality of 90% or above (nearly complete death)) | 2 (mortality of at least 20% and less than 40%) | 3 (mortality of at least 40% and less than 70%) | 1 (mortality of at least 5% and less than 20%) | 5 (mortality of 90% or above (nearly complete death)) | 0 (mortality of less than 5% (almost ineffective)) | 3 (mortality of at least 40% and less than 70%) | 4 (mortality of at least 70% and less than 90%) | 5 (mortality of 90% or above (nearly complete death)) | N: common chickweed, herbicidal effect [22]: 4 (mortality of at least 70% and less than 90%); L: common lambsquater, herbicidal effect [23]: 5 (mortality of 90% or above (nearly complete death)); J: common ragweed, herbicidal effect [24]: 4 (mortality of at least 70% and less than 90%); E: giant foxtail, herbicidal effect [25]: 3 (mortality of at least 40% and less than 70%); D: large crabgrass, herbicidal effect [26]: 5 (mortality of 90% or above (nearly complete death)); M: posumbu knotweed, herbicidal effect [27]: 3 (mortality of at least 40% and less than 70%); K: redroot pigweed, herbicidal effect [28]: 4 (mortality of at least 70% and less than 90%); I: velvetleaf, herbicidal effect [29]: 4 (mortality of at least 70% and less than 90%); G: water foxtail, herbicidal effect [30]: 5 (mortality of 90% or above (nearly complete death)); F: wild oat, herbicidal effect [31]: 1 (mortality of at least 5% and less than 20%)
